Measured values reported in ChEMBL document CHEMBL3244190, “2,3-Dihydroxy-9-amino-9,10-dihydrophenanthrene, a rigid congener of dopamine and isoapomorphine” (J Med Chem, 1978).
Active and inactive are the calls of the source. The rule behind the calls is not given here.

Key:
[1] = target: T1, Adenylate cyclase (Rattus norvegicus) (UniProt D4A3N4+P26770+Q04400+P26769+Q03343+P40146+Q8CFM9+P21932); assay: Activation of rat striatal homogenate adenylate cyclase assessed as cAMP level at 100 uM after 2.5 mins relative to control
[2] = target: T1, Adenylate cyclase (Rattus norvegicus); assay: Inhibition of dopamine-induced adenylate cyclase activation in rat striatal homogenate assessed as enzyme activity at 100 uM after 2.5 mins relative to control; design: scale not given: the % may be the effect or the level left
[3] = target: T1, Adenylate cyclase (Rattus norvegicus); assay: Activation of rat striatal homogenate adenylate cyclase assessed as cAMP level at 10 uM after 2.5 mins relative to control
Canis familiaris = assay: Induction of vasodilation in intraarterially dosed anesthetized Mongrel dog at 3 umol; type: functional, organism-based; details: Canis lupus familiaris

| Activity [1] | Activity [2] | Activity [3] | Structure (SMILES) | Activity (Canis familiaris) |
| --- | --- | --- | --- | --- |
| 150% |  |  | NCCc1ccc(O)c(O)c1 |  |
| 92% | 149% | 100% | NC1Cc2cc(O)c(O)cc2-c2ccccc21 (stereo not given) | inactive |
